The values that follow come from paper PMC11364775, “Ion occupancy of the selectivity filter controls opening of a cytoplasmic gate in the K2P channel TALK-2” (Nature Communications, 2024).

For assay [1], the system named is WT TREK-1 channels (human K2P2.1). Particulars: TREK-1 WT.
Method: Oocytes were surgically removed from anesthetized adult females, treated with type II collagenase (Sigma-Aldrich/Merck, Germany) and manually defolliculated. 50 nl of a solution containing the K^+ channel specific cRNA was injected into Dumont stage V - VI oocytes and subsequently incubated at 17 °C in a solution containing (mM): 54 NaCl, 30 KCl, 2.4 NaHCO3, 0.82 MgSO4 x 7 H2O, 0.41 CaCl2, 0.33 Ca(NO3)2 x 4 H2O and 7.5 TRIS (pH 7.4 adjusted with NaOH/HCl) for 1–7 days before use. Electrophysiological recordings: Excised patch measurements in inside-out configuration under voltage-clamp conditions were performed at room temperature (22 – 24 °C). […] Intracellular bath solutions and compounds were applied to the cytoplasmic side of excised patches for the various K^+ channels via a gravity flow multi-barrel pipette system. Intracellular solution had the following composition (in mM): 120 KCl, 10 HEPES, 2 EGTA and 1 Pyrophosphate (pH adjusted with KOH/HCl). In other intracellular bath solutions, K^+ was replaced by Rb^+ (pH 7.4 adjusted with RbOH/HCl). Currents were recorded with an EPC10 amplifier (HEKA electronics, Germany) and sampled at 10 kHz or higher and filtered with 3 kHz (-3 dB) or higher as appropriate for sampling rate.
Recorded currents were analyzed from stable membrane patches at a voltage defined in the respective figure legend or with a voltage protocol as indicated in the respective figure. The fold activation (fold change in (tail) current amplitude) of a ligand (drug or bioactive lipid) was calculated from Eq. 1:1 Fold activationFA=Iactivated/Ibasal where Iactivated represents the stable current level in the presence of a given concentration of a respective ligand and Ibasal the measured current before ligand application. Percentage inhibition or residual currents upon blocker application for a ligand (drug or bioactive lipid) was calculated from stable currents of excised membrane patches using the following Eqs. 2 and 3:2 %inhibition=1−Iinhibited/Ibasal*100 3 Residual current=100−%inhibition where Iinhibited refers to the stable current level recorded in the presence of a given concentration of a drug or bioactive lipid and Ibasal to the measured current before ligand application. The macroscopic half-maximal concentration-inhibition relationship of a ligand was obtained using a Hill-fit for dose-response curves as depicted in Eq. 4:4 %inhibition/activation=Ibase+Imax−Ibase/1+x1/2/x^rate where base and max are the currents in the absence and presence of a respective ligand, x is the concentration of the ligand, x1/2 is the ligand concentration at which the activatory or inhibitory effect is half-maximal, rate is the Hill coefficient.
Assay [2] concerns the target T1, TALK-2 L264A mutant channels (Homo sapiens, UniProt Q96T54, L264A).
T1 sequence (Q96T54 1-332 L264A): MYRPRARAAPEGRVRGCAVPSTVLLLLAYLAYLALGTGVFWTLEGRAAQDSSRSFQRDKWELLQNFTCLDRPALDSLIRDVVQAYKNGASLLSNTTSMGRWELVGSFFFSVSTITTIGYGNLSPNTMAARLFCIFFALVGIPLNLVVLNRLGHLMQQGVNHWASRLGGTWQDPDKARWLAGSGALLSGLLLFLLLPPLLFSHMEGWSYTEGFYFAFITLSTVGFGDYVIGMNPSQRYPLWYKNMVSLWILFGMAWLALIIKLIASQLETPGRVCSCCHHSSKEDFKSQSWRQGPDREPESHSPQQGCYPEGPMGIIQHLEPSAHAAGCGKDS
The experiment in a line: Conductance-voltage (G-V) curves from tail currents, V1/2 (intracellular Rb+). As to conditions: for Normalized current: TALK-2 L264A + 1 mM TPenA. It counts as cell-based. The arrangement: expressed in transfected cells; host or cells: Xenopus laevis oocytes (cRNA injection), excised inside-out patches. The text has this:
The voltage-dependent activation mechanism of the SF gate in K2P channels allows to estimate the electrical work (ΔG = zFΔV1/2) required for pore opening by fitting the G–V curve to a Boltzmann equation. […] The open state represents the situation of both gates being simultaneously open but voltage can only exert force on the SF gate that functions as voltage sensor. […] We further tested whether mutations that open the lower gate (L262A and L264A) would affect the extracellular pH sensitivity. […] We further explored this concept of allosteric coupling using the mutations identified in the functional alanine screen of TM2 and TM4.
Dashed lines in e, f represent the level of WT (unstimulated) V1/2 at pHe 7.4. g Normalized currents from TEVC measurements of oocytes expressing WT (n = 11) and mutant L262A (n = 5) or L264A TALK-2 channels (n = 8), respectively. Channels were activated by increasing pHe from 5.5 to 10.5 with 0.5 pH increments. Currents were elucidated with a voltage protocol ramped from −120 mV to +45 mV within 3.5 s, analyzed at +40 mV and normalized to pH 10.5. Data shown are the mean ± s.e.m and the number (n) of independent experiments is indicated in the figure and supplementary tables 3 and 4.
Conductance-voltage (G–V) relationships were determined from tail currents recorded at a holding potential (VH) of −80 mV after 300 ms depolarizing steps as indicated in the respective figure legend. Data were analyzed with a single Boltzmann fit following Eq. 6:6 GV=Imax/1+e^V−V1/2/slope+Ibase where V1/2 represents the voltage of half-maximal activation, s is the slope factor and Imax and Ibase represent the upper and lower asymptotes. Under appropriate experimental conditions, you can use slope to calculate the valence (charge) of the ion moving across the channel. Slope equals R * T/ z * F where R is the universal gas constant, T is temperature in K, F is the Faraday constant, and z is the valence.

For assay [3], the target named is T2, WT TALK-2 channels (human K2P17.1) (Homo sapiens, UniProt Q96T54).
T2 sequence (Q96T54 1-332): T1 sequence (Q96T54 1-332 L264A) with A264L
The arrangement: expressed in transfected cells; host or cells: Xenopus laevis oocytes (cRNA injection), excised inside-out patches; method as in PMID 34928298. As to conditions: cited from earlier work.

Numbering of substitutions follows the chain as printed. Read-outs that look alike come from different tables or passages of the source.

Regarding `NCCOB(c1ccccc1)c1ccccc1` [2-APB, 2-aminoethoxydiphenyl borate], the Normalized currents in assay [1] (0.1 µM 2-APB) was 0.03; in assay [1] (1 µM 2-APB), 0.04; in assay [1] (10 µM 2-APB), 0.08; in assay [1] (100 µM 2-APB), 0.28; in assay [1] (200 µM 2-APB), 0.47; in assay [1] (500 µM 2-APB) it was 0.80. Besides, the Normalized currents in assay [1] (1000 µM 2-APB) is recorded as 0.97; in assay [1] (2000 µM 2-APB), 0.99.
`CCCCC[N+](CCCCC)(CCCCC)CCCCC` [TPenA, Tetra-pentyl-ammonium chloride]: the Normalized current was determined as 0.564 in assay [2] (Voltage 0.000); 0.623 in assay [2] (Voltage 0.005); 0.674 in assay [2] (Voltage 0.010); 0.740 in assay [2] (Voltage 0.015); 0.788 in assay [2] (Voltage 0.020); 0.840 in assay [2] (Voltage 0.025). The Normalized current in assay [2] (Voltage 0.030) stood at 0.884; in assay [2] (Voltage 0.035) it was 0.911; in assay [2] (Voltage 0.040) it was 0.934; in assay [2] (Voltage 0.045), 0.947; in assay [2] (Voltage 0.050), 0.961; in assay [2] (Voltage 0.055), 0.969. Moreover, the Normalized current in assay [2] (Voltage 0.060) is reported as 0.977; in assay [2] (Voltage 0.065) it was 0.978; in assay [2] (Voltage 0.070), 0.978; in assay [2] (Voltage 0.075), 0.974; in assay [2] (Voltage 0.080), 0.988; in assay [2] (Voltage 0.085), 0.976. Also, the Normalized current in assay [2] (Voltage 0.090) stood at 0.979; in assay [2] (Voltage 0.095) it was 0.980; in assay [2] (Voltage 0.100), 0.977; in assay [2] (Voltage 0.105), 0.982; in assay [2] (Voltage 0.110), 0.987; in assay [2] (Voltage 0.115) it was 0.981. In addition, the Normalized current in assay [2] (Voltage -0.005) was determined as 0.522; in assay [2] (Voltage -0.010), 0.490; in assay [2] (Voltage -0.015), 0.463; in assay [2] (Voltage -0.020) it was 0.444; in assay [2] (Voltage -0.025) it was 0.430; in assay [2] (Voltage -0.030), 0.417. For the same compound, the Normalized current in assay [2] (Voltage -0.035) was 0.405; in assay [2] (Voltage -0.040) it was 0.395; in assay [2] (Voltage -0.045) it was 0.384; in assay [2] (Voltage -0.050) it was 0.375; in assay [2] (Voltage -0.055) it was 0.367; in assay [2] (Voltage -0.060), 0.359. For the same compound, the Normalized current is given as 0.351 in assay [2] (Voltage -0.065); 0.345 in assay [2] (Voltage -0.070); 0.337 in assay [2] (Voltage -0.075); 0.333 in assay [2] (Voltage -0.080); 0.330 in assay [2] (Voltage -0.085); 0.331 in assay [2] (Voltage -0.090). Further, the Normalized current in assay [2] (Voltage -0.095) was determined as 0.326. In assay [2] (TALK-2 L264A, intracellular Rb+), the “effect of TPenA on the G-V curve” value is “no marked effect”.
Regarding `CCCCCCCC/C=C\CCCCCCCC(=O)SCCNC(=O)CCNC(=O)[C@H](O)C(C)(C)COP(=O)(O)OP(=O)(O)OC[C@H]1O[C@@H](n2cnc3c(N)ncnc32)[C@H](O)[C@@H]1OP(=O)(O)O` [oleoyl-CoA], in assay [3], the “increase of channel activity” value is listed as “more than 100 fold”.
